The source of these data is patent US7326732B2, “EP2 receptor agonists” (Pharmagene Laboratories Limited, priority 2004, dated 2008).

Like-named read-outs stand apart in the source and are kept apart here.

For test [1], the target named is T1, human EP2 receptor (Homo sapiens, UniProt P43116).
T1 construct: expressed in transfected cells
Description: Binding ability to human EP receptors ([3H]PGE2 displacement), EP2. The essentials: (§1)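 Membranes from cells stably expressing human EP2, EP3 or EP4 incubated to equilibrium with [3H]PGE2 and compound at 0.1 to 10 000 nM. Non-specific binding defined with 10 uM PGE2; bound label separated by vacuum filtration and quantified by scintillation counting.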

Test [2] concerns the target T2, human EP4 receptor (Homo sapiens, UniProt P35408).
T2 construct: expressed in transfected cells
Description: Binding ability to human EP receptors ([3H]PGE2 displacement), EP4. The note with it: membranes expressing human EP4; [3H]PGE2 1 nM; Cheng-Prusoff; read-out: pKi (M) EP4 (converted). Put shortly: as §1

Test [3] deals with T3, human EP3 receptor (Homo sapiens, UniProt P43115).
T3 construct: expressed in transfected cells
T3 sequence (P43115 1-390): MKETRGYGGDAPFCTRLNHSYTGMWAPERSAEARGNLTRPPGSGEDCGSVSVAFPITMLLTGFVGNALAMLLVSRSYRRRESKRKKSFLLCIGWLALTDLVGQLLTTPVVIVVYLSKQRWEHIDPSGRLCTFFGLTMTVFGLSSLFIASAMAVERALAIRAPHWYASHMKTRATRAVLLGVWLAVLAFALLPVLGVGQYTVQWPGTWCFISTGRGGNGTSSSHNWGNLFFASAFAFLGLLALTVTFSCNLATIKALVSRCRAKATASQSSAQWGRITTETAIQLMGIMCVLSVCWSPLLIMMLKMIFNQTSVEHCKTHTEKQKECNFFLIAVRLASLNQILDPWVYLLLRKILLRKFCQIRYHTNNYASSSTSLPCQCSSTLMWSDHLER
Briefly: Binding ability to human EP receptors ([3H]PGE2 displacement), EP3. The note with it: membranes expressing human EP3; [3H]PGE2 2.5 nM; Cheng-Prusoff; read-out: pKi (M) EP3 (converted). Put shortly: as §1

Test [4] has as its target T4, human EP2 prostanoid receptors (Homo sapiens, UniProt P43116).
T4 construct: expressed in transfected cells; host or cells: HEK-293
Briefly: Agonist activity at recombinant human EP2 prostanoid receptors (cAMP in HEK-293 clones). It is filed as cell-based. The note with it: for activity (EP2 part): functional classification at EP2.

The mark [5] stands for this setting: membranes expressing human EP2, [3H]PGE2 3 nM, Cheng-Prusoff, read-out: pKi (M) EP2 (converted).
[6] abbreviates: HEK-293 stably transfected with human EP2, cAMP accumulation, read-out: pEC50 EP2 (converted).

T4 sequence (P43116 whole entry): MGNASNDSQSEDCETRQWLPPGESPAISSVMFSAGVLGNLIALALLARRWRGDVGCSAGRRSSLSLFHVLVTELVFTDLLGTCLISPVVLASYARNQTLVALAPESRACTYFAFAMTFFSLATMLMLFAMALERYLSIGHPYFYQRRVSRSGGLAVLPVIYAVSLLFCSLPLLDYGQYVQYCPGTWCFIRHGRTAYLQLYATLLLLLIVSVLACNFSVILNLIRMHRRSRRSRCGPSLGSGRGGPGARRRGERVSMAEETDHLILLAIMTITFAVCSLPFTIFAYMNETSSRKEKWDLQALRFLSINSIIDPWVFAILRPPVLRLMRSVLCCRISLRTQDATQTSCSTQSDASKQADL
T1 sequence (P43116 whole entry): as above
T2 sequence (P35408 whole entry): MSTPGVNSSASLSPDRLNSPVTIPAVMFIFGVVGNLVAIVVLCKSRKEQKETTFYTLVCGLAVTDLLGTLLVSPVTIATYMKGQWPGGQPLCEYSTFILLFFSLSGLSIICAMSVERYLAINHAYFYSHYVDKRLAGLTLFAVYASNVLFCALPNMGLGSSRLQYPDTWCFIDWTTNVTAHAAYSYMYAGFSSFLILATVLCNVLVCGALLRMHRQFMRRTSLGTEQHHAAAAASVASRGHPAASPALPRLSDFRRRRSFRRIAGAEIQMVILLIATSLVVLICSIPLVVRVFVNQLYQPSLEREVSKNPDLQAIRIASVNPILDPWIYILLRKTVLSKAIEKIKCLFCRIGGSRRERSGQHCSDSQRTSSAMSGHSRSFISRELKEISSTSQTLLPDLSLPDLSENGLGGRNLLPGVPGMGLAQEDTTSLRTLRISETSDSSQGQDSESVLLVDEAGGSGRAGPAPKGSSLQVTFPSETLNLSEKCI

For the compound `O=C(O)/C=C/c1cccc(NC(=O)c2csc(-c3cccc(F)c3)n2)c1` [Compound 116, 3-(3-{[2-(3-Fluoro-phenyl)-thiazole-4-carbonyl]-amino}-phenyl)-acrylic acid], the Ki is under 1e-07 M in test [1] (setting [5]), over 1e-05 M in test [2] and over 1e-05 M in test [3]. For the same compound, the EC50 in test [4] (setting [6]) is under 0.1 µM. The “activity (EP2 part)” value in test [4] is on record as “EP2 Agonist”.

Take `O=C(O)Cc1cccc(C(=O)Nc2cccc(-c3ccccc3)c2)c1` [Compound 117, [3-(Biphenyl-3-ylcarbamoyl)-phenyl]-acetic acid]: the Ki was under 1e-06 M in test [1] (setting [5]), over 1e-05 M in test [2] and over 1e-05 M in test [3]. In addition, in test [4] (setting [6]), the EC50 is under 10 µM. Also, the “activity (EP2 part)” value in test [4] is on record as “EP2 Agonist”.

With `Cn1c(C(=O)O)cc2cc(NC(=O)c3ccc(-c4ccccc4)o3)ccc21` [Compound 118, 1-Methyl-5-[(5-phenyl-furan-2-carbonyl)-amino]-1H-indole-2-carboxylic acid], the Ki in test [1] (setting [5]) is under 1e-06 M; in test [2] it was over 1e-05 M; in test [3], over 1e-05 M. In addition, in test [4] (setting [6]), the EC50 is under 0.1 µM. The “activity (EP2 part)” value in test [4] is “EP2 Agonist”.

Consider `O=C(O)/C=C/c1cccc(CC(=O)c2ccc(-c3ccccc3)o2)c1` [Compound 120, 3-{3-[2-Oxo-2-(5-phenyl-furan-2-yl)-ethyl]-phenyl}-acrylic acid], for which the Ki in test [1] (setting [5]) is under 1e-05 M; in test [2], over 1e-05 M; in test [3], over 1e-05 M. Also, in test [4] (setting [6]), the EC50 is under 1 µM. The “activity (EP2 part)” value in test [4] is “EP2 Agonist”.

In the case of `O=C(O)/C=C/c1cccc(OCc2csc(-c3ccccc3)n2)c1` [Compound 121, 3-[3-(2-Phenyl-thiazol-4-ylmethoxy)-phenyl]-acrylic acid], the Ki was under 1e-06 M in test [1] (setting [5]), over 1e-05 M in test [2] and over 1e-05 M in test [3]. Also, the EC50 in test [4] (setting [6]) is under 1 µM. Also, in test [4], the “activity (EP2 part)” value was “EP2 Agonist”.

In the case of `O=C(O)Cc1cccc(NC(=O)c2ccc(-c3cc(F)cc(F)c3)o2)c1` [Compound 127, (3-{[5-(3,5-Difluoro-phenyl)-furan-2-carbonyl]-amino}-phenyl)-acetic acid], the values for the Ki in test [1] (setting [5]), in test [2] and in test [3] were under 1e-07 M, over 1e-05 M and over 1e-05 M, respectively. Moreover, the EC50 in test [4] (setting [6]) was under 0.1 µM. For the same compound, the “activity (EP2 part)” value in test [4] was “EP2 Agonist”.

Take `O=C(O)Cc1cccc(NC(=O)c2ccc(-c3cccc(F)c3)o2)c1` [Compound 128, (3-{[5-(3-fluoro-phenyl)-furan-2-carbonyl]-amino}-phenyl)-acetic acid]: the Ki in test [1] (setting [5]) is under 1e-06 M; in test [2], over 1e-05 M; in test [3], over 1e-05 M. For the same compound, the EC50 in test [4] (setting [6]) was under 0.1 µM. Also, the “activity (EP2 part)” value in test [4] is listed as “EP2 Agonist”.

For `O=C(O)/C=C/c1cccc(NC(=O)c2cccc(-c3cc(Cl)cc(Cl)c3)n2)c1` [Compound 132, 3-(3-{[6-(3,5-Dichloro-phenyl)-pyridine-2-carbonyl]-amino}-phenyl)-acrylic acid], the Ki in test [1] (setting [5]) was under 1e-07 M; in test [2] it was over 1e-05 M; in test [3], over 1e-05 M. The EC50 in test [4] (setting [6]) is under 0.1 µM. For the same compound, in test [4], the “activity (EP2 part)” value was “EP2 Agonist”.

For the compound `O=C(O)CCc1cccc(NC(=O)c2cccc(-c3cc(Cl)cc(Cl)c3)n2)c1` [Compound 134, 3-(3-{[6-(3,5-Dichloro-phenyl)-pyridine-2-carbonyl]-amino}-phenyl)-propionic acid], the Ki in test [1] (setting [5]) is under 1e-07 M; in test [2] it was over 1e-05 M; in test [3], over 1e-05 M. Further, the EC50 in test [4] (setting [6]) was under 0.1 µM. Further, in test [4], the “activity (EP2 part)” value is given as “EP2 Agonist”.

Take `O=C(Nc1ccc2[nH]c(C(=O)O)cc2c1)c1cccc(-c2cc(Cl)cc(Cl)c2)n1` [Compound 135, 5-{[6-(3,5-Dichloro-phenyl)-pyridine-2-carbonyl]-amino}-1H-indole-2-carboxylic acid]: the Ki in test [1] (setting [5]) is under 1e-06 M; in test [2], over 1e-05 M; in test [3], over 1e-05 M. Besides, the EC50 in test [4] (setting [6]) is under 1 µM. In addition, in test [4], the “activity (EP2 part)” value is listed as “EP2 Agonist”.

For `O=C(O)/C=C/c1cccc(NC(=O)c2cccc(-c3cccc(Cl)c3)n2)c1` [Compound 137, 3-(3-{[6-(3-Chloro-phenyl)-pyridine-2-carbonyl]-amino}-phenyl)-acrylic acid], the Ki in test [1] was under 1e-07 M; in test [2] it was under 1e-06 M; in test [3] it was over 1e-05 M. Also, in test [4], the EC50 was under 0.1 µM. Also, in test [4], the “activity (EP2 part)” value is reported as “EP2 Agonist”.

For the compound `O=C(O)COc1cccc(NC(=O)c2cc(-c3cccc(Cl)c3)ccc2F)c1` [Compound 140, {3-[(3′-Chloro-4-fluoro-biphenyl-3-carbonyl)-amino]-phenoxy}-acetic acid], the values for the Ki in test [1] (setting [5]), in test [2] and in test [3] were under 1e-07 M, over 1e-05 M and over 1e-05 M, respectively. Moreover, the EC50 in test [4] (setting [6]) is under 0.1 µM. The “activity (EP2 part)” value in test [4] is “EP2 Agonist”.

As to `O=C(O)/C=C/c1cccc(NC(=O)c2cc(-c3cccc(Cl)c3)ccc2F)c1` [Compound 142, 3-{3-[(3′-Chloro-4-fluoro-biphenyl-3-carbonyl)-amino]-phenyl}-acrylic acid], the Ki in test [1] (setting [5]) is under 1e-07 M; in test [2] it was over 1e-05 M; in test [3] it was over 1e-05 M. Further, the EC50 in test [4] (setting [6]) is under 0.1 µM. The “activity (EP2 part)” value in test [4] is “EP2 Agonist”.

Consider `O=C(O)COc1cccc(NC(=O)c2cc(-c3cc(Cl)cc(Cl)c3)ccc2F)c1` [Compound 143, {3-[(3′,5′-Dichloro-4-fluoro-biphenyl-3-carbonyl)-amino]-phenoxy}-acetic acid], for which the Ki is under 1e-07 M in test [1] (setting [5]), over 1e-05 M in test [2] and over 1e-05 M in test [3]. The EC50 in test [4] (setting [6]) was under 0.1 µM. Besides, in test [4], the “activity (EP2 part)” value is listed as “EP2 Agonist”.

Consider `O=C(O)/C=C/c1cccc(NC(=O)c2ccc(-c3ccc(Cl)cc3)o2)c1` [Compound 146, 3-(3-{[5-(4-Chloro-phenyl)-furan-2-carbonyl]-amino}-phenyl)-acrylic acid], for which the Ki in test [1] (setting [5]) is under 1e-07 M; in test [2] it was over 1e-05 M; in test [3] it was over 1e-05 M. For the same compound, in test [4] (setting [6]), the EC50 is under 0.1 µM. For the same compound, the “activity (EP2 part)” value in test [4] is given as “EP2 Agonist”.

For the compound `O=C(O)CCc1cccc(NC(=O)c2ccc(-c3ccc(Cl)cc3)o2)c1` [Compound 147, 3-(3-{[5-(4-Chloro-phenyl)-furan-2-carbonyl]-amino}-phenyl)-propionic acid], the Ki in test [1] (setting [5]) was under 1e-07 M; in test [2], over 1e-05 M; in test [3] it was over 1e-05 M. Besides, the EC50 in test [4] (setting [6]) is under 0.1 µM. For the same compound, the “activity (EP2 part)” value in test [4] is listed as “EP2 Agonist”.

For `O=C(O)CCc1cccc(NC(=O)c2ccc(-c3ccc(F)cc3)o2)c1` [Compound 148, 3-(3-{[5-(4-Fluoro-phenyl)-furan-2-carbonyl]-amino}-phenyl)-propionic acid], the Ki in test [1] (setting [5]) is under 1e-07 M; in test [2], over 1e-05 M; in test [3] it was over 1e-05 M. Further, the EC50 in test [4] (setting [6]) was under 0.1 µM. In addition, the “activity (EP2 part)” value in test [4] is “EP2 Agonist”.

Turning to `O=C(O)Cc1cccc(NC(=O)c2cccc(-c3ccc(Cl)cc3)n2)c1` [Compound 150, (3-{[6-(4-Chloro-phenyl)-pyridine-2-carbonyl]-amino}-phenyl)-acetic acid], the Ki in test [1] (setting [5]) is under 1e-06 M; in test [2], over 1e-05 M; in test [3], over 1e-05 M. In test [4] (setting [6]), the EC50 is under 1 µM. Also, the “activity (EP2 part)” value in test [4] was “EP2 Agonist”.
